Experimental data: patent US11701358B2, “Methods of inhibiting serum glucocorticoid induced kinase 1 (SGKI) as a treatment for salt and water balance diseases” (Indiana University Research and Technology Corporation, priority 2017, dated 2023)
“Also recorded” adds a separate entry of the source.

How the values were obtained:
[1] = tested on: epithelial sodium channel (ENaC); test: Short-circuit current, basal ENaC activity in mCCD cells; type: cell-based, mouse; conditions: mCCD cell monolayer, Ussing chamber
Source text: The mouse cortical collecting duct (mCCD) cell line is a continuous, high resistance cell line that has the characteristics of the principal cells that line the kidney distal tubules. In this segment of the tubules, a transport protein, the epithelial sodium channel (ENaC), is responsible for the reabsorption of sodium from the kidney filtrate and the return of this ion to the bloodstream. As the concentration of sodium increases in the blood, the increased osmotic concentration will cause a compensatory movement of water from cells all over the body into the blood and an increase in blood volume and blood pressure. ENaC is an important transport protein and its function plays a major role in the regulation of whole body salt and water balance. Increases in the activity of ENaC can cause hypertension and many hypertension medications target the intracellular signaling pathways that culminate in the activation of ENaC. For example, ENaC is inhibited by the diuretic, amiloride.
The mCCD cell line was grown in tissue culture media consisting of Dulbecco's Minimal Essential media (DMEM):Hams F12 supplemented with 5% fetal bovine serum and penicillin (100 U/ml) and streptomycin ([…]). Cultured cells in both flasks and on Transwells had the media changed thrice weekly. […] In the current Example, the basal activity of ENaC in the cells is the parameter that is monitored.

[2] = tested on: Wpk rat model (TMEM67-/-) of hydrocephalus; test: Head dimensions in homozygous Wpk rat model of hydrocephalus; type: in vivo; conditions: homozygous Wpk rats
Protocol: The effectiveness of SI 113 was tested in a genetic model of hydrocephalus, the Wpk rat model. In this model, the homozygous animals (TMEM67−/−) carry a single point mutation in TMEM67, one of a complex of proteins involved in the formation of the primary cilium. The homozygous affected animals have severe hydrocephalus and renal cystic disease. They typically survive for 18-21 days after birth, and the developing hydrocephalus can be monitored by measuring the head size in a manner analogous to measuring head sizes in human children.
In FIG. 1, the head sizes in both the horizontal and vertical dimensions are shown.

[3] = tested on: PCP-R porcine choroid plexus cell line; test: Short-circuit current, TRPV4 agonist-stimulated transepithelial ion transport in PCP-R cells; type: cell-based; conditions: PCP-R cells in Ussing chamber, pretreatment at t=-10 minutes, agonist at t=0
Protocol: PCP-R (porcine choroid plexus, high resistance) cell line was grown to confluence on permeable Transwell supports. The PCP-R cell line is grown in tissue culture media consisting of Dulbecco's Minimal Essential media (DMEM) supplemented with 10% fetal bovine serum and penicillin (100 U/ml) and streptomycin ([…]). Cultured cells in both flasks and on Transwells had the media changed thrice weekly. After attaining a high resistance phenotype (days 10-12 after seeding on the Transwells), the cultures were removed from the plastic supports and mounted in an Ussing chamber for electrophysiological measurements (short-circuit current (SCC)) of net transepithelial ion transport. A negative deflection is indicative of anion absorption (CSF to blood) and/or cation secretion (blood to CSF). GSK1016797 is an agonist of TRPV4, an osmo- and mechano-sensitive channel which, when stimulated, allows Ca^2+ to enter the cells. The increased intracellular Ca^2+ secondarily stimulates Ca^2+-sensitive channels. In the case of the PCP-R cells, this process stimulates Ca^2+-sensitive K^+ channels causing the secretion of K^+ and, secondarily, water into the cerebrospinal fluid. […] All cultures were stimulated with GSK1016797 at time t=0.

[4] = tested on: heterozygous Wpk rat model of hydrocephalus; test: MRI of lateral ventricular volumes in heterozygous Wpk rat model; type: in vivo; conditions: heterozygous Wpk rats, 8 mg/kg BW i.p. daily for 8 days, versus vehicle, P=0.039 Mann-Whitney
Protocol: FIG. 4 depicts MRI quantification of the effects of SI113 on hydrocephalus in the heterozygous Wpk rat model. The bars represent the difference in volumes of the lateral ventricles measured at postnatal (P) day 7 and P15. The volumes were measured by MRI before treatment with vehicle or SI 113 (8 mg/kg BW; i.p. daily) and again after 8 days of treatment. The difference in the volume for each of the animals was calculated and the averages ±SEM are shown in the bar graph. The number of animals in each study is noted as n. Approximately equal numbers of male and female animals were used.
The Wpk rat model is unique in that the genetic defect causes a severe hydrocephalus in the homozygous affected animals (see FIG. 1) and a mild hydrocephalus in the heterozygous animals (see FIG. 4). The heterozygous animals live for at least year. […] In this model the hydrocephalus is not severe enough to change head dimensions so the effect of the SI113 on the hydrocephalus was measured using MRI. […] Volumes of interest on lateral ventricles were determined from threshold based image segmentation of native cerebrospinal fluid contrast, and images were quantified for lateral ventricular volumes using Analyze 12.0. The MRIs were conducted on each animal on day 7 and day 15 and the differences in lateral ventricular volumes were calculated (FIG. 4).

Compound	short-circuit current (SCC), transepithelial sodium transport via ENaC [1]	head dimensions of treated hydrocephalic animals compared with wild-type animals ([2]; after treatment post-natal day 7 to day 15)	head dimensions (horizontal and vertical) of hydrocephalic animals ([2]; treatment post-natal day 7 to day 15, versus vehicle, *p=0.009, # p=0.03, 1-tailed t-test)	response (short-circuit current) to TRPV4 agonist GSK1016797 [3]	hydrocephalus, difference in lateral ventricular volumes between P7 and P15 by MRI [4]
N=C(N)NC(=O)c1nc(Cl)c(N)nc1N [amiloride, reference compound]	strongly inhibited				
OCCNc1nc(NCCc2ccccc2)c2cnn(/C=C/c3ccccc3)c2n1 [SI 113, 2-({1-(2-phenylethenyl)-4-[(2-phenylethy)amino]-1H-pyrazolo[3,4-d]pyrimidin-6-yl}amino)ethanol]	caused a decrease in the SCC	not statistically different than the wild-type animals	significantly decreased the head dimensions	completely blocked	statistically significant difference; also recorded: effectively decreased the hydrocephalus
